Data published in publication PMC7588595, “Small-molecule active pharmaceutical ingredients of approved cancer therapeutics inhibit human aspartate/asparagine-β-hydroxylase” (Bioorganic & Medicinal Chemistry, 2020).
Where a name gives a salt, the structure may show the parent alone. Read-outs that look alike come from different tables or passages of the source.

Biological target: T1, human AspH (His6-AspH315–758) (Homo sapiens, UniProt Q12797)
T1 construct: N-Terminally His6-tagged human AspH315–758 (His6-AspH315–758) was produced in Escherichia coli BL21 (DE3) cells; made in house; host or cells: Escherichia coli BL21 (DE3), pET-28a(+) vector
T1 sequence (Q12797 315-758): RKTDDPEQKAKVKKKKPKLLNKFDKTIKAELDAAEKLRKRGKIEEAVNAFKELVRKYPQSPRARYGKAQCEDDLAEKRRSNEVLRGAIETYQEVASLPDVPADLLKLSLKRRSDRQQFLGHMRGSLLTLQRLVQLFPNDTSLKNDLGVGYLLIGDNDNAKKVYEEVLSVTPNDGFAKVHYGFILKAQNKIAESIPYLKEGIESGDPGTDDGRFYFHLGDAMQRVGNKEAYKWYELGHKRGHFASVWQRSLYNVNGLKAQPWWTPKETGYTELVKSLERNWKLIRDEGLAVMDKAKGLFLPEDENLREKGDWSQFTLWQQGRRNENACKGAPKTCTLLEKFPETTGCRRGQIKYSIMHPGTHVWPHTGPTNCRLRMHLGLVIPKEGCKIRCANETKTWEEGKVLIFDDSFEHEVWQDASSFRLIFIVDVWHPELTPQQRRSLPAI
Assay: SPE-MS AspH inhibition assay (hFX-CP101-119 substrate hydroxylation)
Assay type: biochemical
Details: for Plate 1 (% inhibition): 384-well Plate 1

[1] = AspH-inhibitor screening, 384-well Plate 1, substrate conversion
[2] = AspH-inhibitor screening, Plate 1-duplicate
[3] = AspH-inhibitor screening, Plate 1-duplicate, substrate conversion

Compound | Plate 1 (% inhibition) (AspH-inhibitor screening) [%] | Plate 1 (% conversion) [1] [%] | Plate 1-duplicate (% inhibition) [2] [%] | Plate 1-duplicate (% conversion) [3] [%] | Plate 1 (% conversion) [%] | Plate 1-duplicate (% conversion) [%]
C=CC(=O)N1CCC[C@@H](n2nc(-c3ccc(Oc4ccccc4)cc3)c3c(N)ncnc32)C1 [PCI-32765_Ibrutinib] | 0.65 | 49.45 | -9.59 | 56.80 | – | –
CC(=O)c1c(C)c2cnc(Nc3ccc(N4CCNCC4)cn3)nc2n(C2CCCC2)c1=O [PD-0332991] | 1.12 | 49.23 | -1.13 | 52.60 | – | –
Nc1nccc(-c2c(-c3ccc(F)cc3)ncn2C2CCCCC2)n1 [PF670462] | 40.03 | 31.27 | 29.89 | 37.22 | – | –
Nc1ncnc2c1c(COc1cccc(Cl)c1)nn2C1CCOCC1 [PF4800567 hydrochloride] | -0.85 | 50.14 | 0.27 | 51.91 | – | –
CN(c1ccccc1CNc1nc(Nc2ccc3c(c2)CC(=O)N3)ncc1C(F)(F)F)S(C)(=O)=O [PF 431396] | 1.90 | 48.87 | -4.64 | 54.34 | – | –
Cn1cc(-c2[nH]c3cc(NC(=O)[C@H](N)C4CCCCC4)cc4c3c2C=NNC4=O)cn1 [PF 477736] | -54.30 | 74.83 | -54.03 | 78.84 | – | –
O=C(Nc1cccnc1)N1CCC(Cc2cccc(Oc3ccc(C(F)(F)F)cn3)c2)CC1 [PF-3845] | 5.62 | 47.15 | -12.27 | 58.13 | – | –
C[C@@H](Oc1cc(-c2cnn(C3CCNCC3)c2)cnc1N)c1c(Cl)ccc(F)c1Cl [PF-2341066 (Crizotinib)] | -4.19 | 51.68 | -4.98 | 54.51 | – | –
COc1ccc(-c2cc3c(C)nc(N)nc3n([C@H]3CC[C@H](OCCO)CC3)c2=O)cn1 [PF-04691502] | -6.58 | 52.79 | -5.13 | 54.58 | – | –
CCc1cncnc1N1CCN(Cc2nc3ccc(C(F)(F)F)cc3[nH]2)CC1 [PF-04708671] | -5.43 | 52.26 | -7.38 | 55.70 | – | –
CO[C@@H](C(=O)N1Cc2[nH]nc(NC(=O)c3ccc(N4CCN(C)CC4)cc3)c2C1)c1ccccc1 [PHA-739358 (Danusertib)] | 4.40 | 47.72 | 1.12 | 51.48 | – | –
Cc1ccc([N+](=O)[O-])cc1S(=O)(=O)N(C)/N=C/c1cnc2ccc(Br)cn12.Cl [PIK-75 HCl] | -11.59 | 55.10 | -0.06 | 52.07 | – | –
CO[C@@H]1[C@H](N(C)C(=O)c2ccccc2)C[C@H]2O[C@]1(C)n1c3ccccc3c3c4c(c5c6ccccc6n2c5c31)C(=O)NC4 [PKC412_Midostaurin] | – | 7.13 | – | 6.90 | – | –
CCCS(=O)(=O)Nc1ccc(F)c(C(=O)c2c[nH]c3ncc(-c4ccc(Cl)cc4)cc23)c1F [PLX4032_Vemurafenib] | 39.76 | 31.39 | 46.15 | 29.15 | – | –
CC(=O)O[C@H]1C(=O)[C@@]2(C)[C@H]([C@H](OC(=O)c3ccccc3)[C@]3(O)C[C@H](OC(=O)[C@H](O)[C@@H](NC(=O)c4ccccc4)c4ccccc4)C(C)=C1C3(C)C)[C@]1(OC(C)=O)CO[C@@H]1C[C@@H]2O [Paclitaxel] | 6.60 | 46.70 | -2.08 | 53.08 | – | –
CC(=O)c1c(C)c2cnc(Nc3ccc(N4CCNCC4)cn3)nc2n(C2CCCC2)c1=O [Palbociclib] | 13.54 | 43.50 | 4.20 | 49.96 | – | –
Cc1[nH]c2ccccc2c1CCNCc1ccc(/C=C/C(=O)NO)cc1 [Panobinostat] | 44.02 | 29.42 | 37.62 | 33.38 | – | –

Compound | Plate 1 (% inhibition) (AspH-inhibitor screening) [%] | Plate 1 (% conversion) [1] [%] | Plate 1-duplicate (% inhibition) [2] [%] | Plate 1-duplicate (% conversion) [3] [%] | Plate 1 (% conversion) [%] | Plate 1-duplicate (% conversion) [%]
Cc1ccc(Nc2nccc(N(C)c3ccc4c(C)n(C)nc4c3)n2)cc1S(N)(=O)=O.Cl [Pazopanib hydrochloride] | -0.37 | 49.92 | -28.79 | 66.32 | – | –
Cc1ccc(Nc2nccc(N(C)c3ccc4c(C)n(C)nc4c3)n2)cc1S(N)(=O)=O [Pazopanib] | 4.18 | 47.82 | -21.51 | 62.71 | – | –
Nc1nc2[nH]cc(CCc3ccc(C(=O)N[C@@H](CCC(=O)[O-])C(=O)[O-])cc3)c2c(=O)[nH]1.O.O.O.O.O.O.O.[Na+].[Na+] [Pemetrexed, Disodium salt, Heptahydrate] | 6.49 | 46.75 | 6.63 | 48.75 | – | –
Nc1nc2[nH]cc(CCc3ccc(C(=O)N[C@@H](CCC(=O)O)C(=O)O)cc3)c2c(=O)[nH]1 [Pemetrexed] | 17.80 | 41.53 | 10.26 | 46.95 | – | –
OC[C@H]1O[C@@H](n2cnc3c2NC=NC[C@H]3O)C[C@@H]1O [Pentostatin] | 10.69 | 44.81 | 8.07 | 48.04 | – | –
CCCCCCCCCCCCCCCCCCOP(=O)([O-])OC1CC[N+](C)(C)CC1 [Perifosine aq/PBS] | -1.17 | 50.29 | -2.15 | 53.11 | – | –
CC[C@@H]1C(=O)OC[C@@H]1Cc1cncn1C [Pilocarpine] | 3.20 | 48.27 | 17.17 | 43.53 | – | –
O=C(CCBr)N1CCN(C(=O)CCBr)CC1 [Pipobroman] | 11.08 | 44.63 | 4.27 | 49.93 | – | –
c1cc(CN2CCCNCCNCCCNCC2)ccc1CN1CCCNCCNCCCNCC1 [Plerixafor] | 9.96 | 45.15 | 5.23 | 49.45 | – | –
Nc1cccc2c1C(=O)N(C1CCC(=O)NC1=O)C2=O (centres unmarked) [Pomalidomide] | 0.86 | 49.35 | 1.01 | 51.54 | – | –
C#CCC(Cc1cnc2nc(N)nc(N)c2n1)c1ccc(C(=O)N[C@@H](CCC(=O)O)C(=O)O)cc1 (some centres unmarked) [Pralatrexate] | 13.78 | 43.39 | 14.13 | 45.03 | – | –
CC[C@H](C)C(=O)O[C@H]1C[C@H](O)C=C2C=C[C@H](C)[C@H](CC[C@@H](O)C[C@@H](O)CC(=O)O)[C@H]21 [Pravastatin] | 12.19 | 44.12 | 8.98 | 47.59 | – | –
C[C@]12C=CC(=O)C=C1CC[C@@H]1[C@@H]2[C@@H](O)C[C@@]2(C)[C@H]1CC[C@]2(O)C(=O)CO [Prednisolone] | 19.12 | – | 12.03 | – | 40.92 | 46.08
C[C@]12C=CC(=O)C=C1CC[C@@H]1[C@@H]2C(=O)C[C@@]2(C)[C@H]1CC[C@]2(O)C(=O)CO [Prednisone] | -2.32 | 50.82 | 2.01 | 51.04 | – | –
COCC1(CO)C(=O)C2CCN1CC2 (centres unmarked) [Prima-1 Met] | 3.70 | 48.04 | 3.39 | 50.36 | – | –
CNNCc1ccc(C(=O)NC(C)C)cc1 [Procarbazine hydrochloride] | 0.24 | 49.64 | 5.52 | 49.30 | – | –
CCN(CC)CCCC(C)Nc1c2ccc(Cl)cc2nc2ccc(OC)cc12 (centres unmarked) [Quinacrine HCl] | 11.37 | 44.50 | 8.52 | 47.81 | – | –
